In patent US12264323B2, “CRISPR CPF1 direct repeat variants” (THE BROAD INSTITUTE, INC., priority 2018, dated 2025):

Assays:
Factor VII = conditions: LNP siRNA systems containing the lipid; hepatocytes in vivo; cited from earlier work
essential genes [1] = assay: AsCas12a tiling library pooled dropout (viability) screens; assay type: cell-based, human; set-up: AUC after selecting top half of guides by Seq-DeepCpf1 score: unit not given beside the values; conditions: for guides targeting a TTTT site observed to be active / precision recall area under curve (AUC): A375 viability data; for guides targeting a TTTT site observed to be active: activity cutoff 5th percentile of guides targeting control genes; for precision recall area under curve (AUC): essential gene guides true positives, control gene guides false positives, TTTT PAMs excluded for AsCas12a; for AUC after selecting top half of guides by Seq-DeepCpf1 score: essential and non-essential guides of the tiling screens; for guides active, all guides / guides active, quartile with the highest Seq-DeepCpf1 prediction scores: guides targeting essential genes, cutoff 5th percentile of cell surface control guides
Excerpt: The AsCas12a library was cloned into a modified version of lentiGuide, pRDA_052, which expresses the guide from a U6 promoter and confers puromycin resistance.

essential genes [2] = assay: Mismatched guide library off-target dropout screen in A375 cells; conditions: cutoff 5th percentile of controls
Method: Cell lines stably expressing Cas12a were transduced with guides cloned into the pRDA_052 vector in two biological replicates at a low MOI (˜0.5). Transductions were performed with enough cells to achieve a representation of at least 500 cells per guide per replicate, taking into account a 30-50% transduction efficiency. Throughout the screen, cells were split at a density to maintain a representation of at least 500 cells per guide, and cell counts were taken at each passage to monitor growth. Puromycin selection was added 2 days post-transduction and was maintained for 5-7 days. After puromycin selection was complete, each replicate was divided into untreated (i.e. no drug/dropout arms) and small molecule treatment arms, each at a representation of at least 500 cells per guide.
In order to assess the off-target tolerance of AsCas12a, a library of guides intentionally mismatched to their target was constructed. […] Screens were performed in duplicate in A375 cells with dropout, vemurafenib, and 6-thioguanine arms in cells stably expressing 2×NLS-Cas12a and enCas12a.

MAPK1-MAPK3 = assay: Synthetic lethal (SynLet) multiplexed guide pair screen; assay type: cell-based, human; conditions: MAPK1-MAPK3, OVCAR8 cells
Excerpt: For a construct with the ordered elements guide1, DR, guide2, it can be said that the
[formula] where m and β are a fitted slope and intercept. The residual then is the difference between the observed and expected LFCs. Filtering SynLet Libraries
To assess the effectiveness of multiplexing across numerous endogenous genes, a library targeting synthetically lethal (SynLet) gene pairs was designed. […] For As Cas12a, a second guide needed only 43 additional nucleotides. […] Furthermore, the proximity of guides in the enCas12a construct made sequencing and downstream analyses easier.
For each gene in a given pair, up to 20 guides were picked at random, 15 and 5 of which targeted TTTV and TTTT PAMs respectively (FIG. 15A). Pairs were screened in both orientations and the top three direct repeats were used. Thus, each gene pair was assessed with up to 2,400 unique constructs (20 guides×20 guides×2 orientations×3 DRs). […]
To quantitate synergies between guide pairs, an expected phenotype was first calculated by determining the average LFC of each targeting guide when it was coupled with controls (FIG. 29A), and then summing the average LFC for the two guides. […] Finally, the residual from the fit line for all constructs were calculated, where a negative residual indicates a synthetic lethal pair. […]

CD47, CD63, and B2M = assay: Triple knockout with Cas12a, flow cytometry of cell surface markers in A375 cells; assay type: cell-based, human; conditions: 6 multiplexed arrays, three timepoints, irrespective of guide position
Method: A375 cells stably expressing enCas12a were transduced with 6 triple knockout arrays, 3 single knockout constructs, and one empty control vector. Two days after transduction, cells were selected with puromycin ([…]), and passaged on puromycin for 7 days. Cells were visualized by flow cytometry on the BDAccuri C6 Sampler system 9, 18, and 25 days post infection. […] Flow cytometry data were analyzed using FlowJo (v10). […] Zero, single, double, and triple knockout populations were quantified using boolean gating in FlowJo.
Using these guides, 6 multiplexed arrays with all possible guide orientations were generated (FIG. 21A-21B). Three single guide constructs, and one empty vector control, and used flow cytometry were also included (FIGS. 31A-31E) to quantify the fraction of cells that were edited or not for all three markers. […] In this internally-controlled assay, EGFP labels cells without enCas12a (and thus no dsDNA breaks) and the fraction of enCas12a-positive, EGFP-negative cells over time was measured by flow cytometry (FIG. 33A). […]

essential genes [3] = assay: PAM identification by analysis of essential genes in a dropout screen; assay type: cell-based; conditions: cell lines A375, MelJuSo, A549, OVCAR8, and 7860
[4] = system: target sites preceded by a PAM; assay: Determination of PAM (plasmid depletion in E. coli); assay type: cell-based; conditions: N is A/C/G or T
Excerpt: Determination of PAM can be ensured as follows This experiment closely parallels similar work in E. coli for the heterologous expression of StCas9 (Sapranauskas, R. et al. Nucleic Acids Res 39, 9275-9282 (2011)). Applicants introduce a plasmid containing both a PAM and a resistance gene into the heterologous E. coli, and then plate on the corresponding antibiotic. If there is DNA cleavage of the plasmid, Applicants observe no viable colonies.
In further detail, the assay is as follows for a DNA target. Two E. coli strains are used in this assay. One carries a plasmid that encodes the endogenous effector protein locus from the bacterial strain. The other strain carries an empty plasmid (e.g. pACYC184, control strain). All possible 7 or 8 bp PAM sequences are presented on an antibiotic resistance plasmid (pUC19 with ampicillin resistance gene). The PAM is located next to the sequence of proto-spacer 1 (the DNA target to the first spacer in the endogenous effector protein locus). Two PAM libraries were cloned. One has an 8 random bp 5′ of the proto-spacer (e.g., total of 65536 different PAM sequences=complexity). The other library has 7 random bp 3′ of the proto-spacer (e.g. total complexity is 16384 different PAMs). Both libraries were cloned to have in average 500 plasmids per possible PAM. […]

dystrophin = conditions: 48 weeks; cited from earlier work
[5] = system: genome-wide off-target sites; conditions: genome-wide assessment of off-target activity; cited from earlier work
[6] = system: target sites with TYCV/CCCC and TATV PAMs; conditions: in vitro and in human cells; cited from earlier work

1,2-dilinoleyloxy-keto-N,N-dimethyl-3-aminopropane [DLinKDMA]
potency order of gene silencing (Factor VII): DLinKC2-DMA>DLinKDMA>DLinDMA>>DLinDAP

1×NLS-Cas12a: lx-NLS-Cas12a lentiviral expression construct; Addgene 84750 [reference compound]
guides targeting a TTTT site observed to be active (essential genes [1]): 7% | precision recall area under curve (AUC) (essential genes [1]): 0.61

2×NLS-Cas12a: 2×-NLS-Cas12a lentiviral expression construct
guides targeting a TTTT site observed to be active (essential genes [1]): 7% | precision recall area under curve (AUC) (essential genes [1]): 0.84 | AUC after selecting top half of guides by Seq-DeepCpf1 score (essential genes [1]): 0.94 | guides active, all guides (essential genes [1]): 47% | guides active, quartile with the highest Seq-DeepCpf1 prediction scores (essential genes [1]): 92% | double mismatch guides active (essential genes [2]): 9% | perfect match guides scoring as active (essential genes [2]): 94% | single mismatch guides active (essential genes [2]): 28%

CCCCC/C=C\C/C=C\CCCCCCCC(=O)OCC(CN(C)C)OC(=O)CCCCCCC/C=C\C/C=C\CCCCC (stereo not shown) [DLinDAP, 1,2-dilineoyl-3-dimethylammonium-propane]
potency order of gene silencing (Factor VII): DLinKC2-DMA>DLinKDMA>DLinDMA>>DLinDAP

CCCCC/C=C\C/C=C\CCCCCCCCOCC(CN(C)C)OCCCCCCCC/C=C\C/C=C\CCCCC (stereo not shown) [DLinDMA, 1,2-dilinoleyloxy-3-N,N-dimethylaminopropane]
potency order of gene silencing (Factor VII): DLinKC2-DMA>DLinKDMA>DLinDMA>>DLinDAP

CCCCC/C=C\C/C=C\CCCCCCCCC1(CCCCCCCC/C=C\C/C=C\CCCCC)OCC(CCN(C)C)O1 (stereo not shown) [DLinKC2-DMA, 1,2-dilinoleyl-4-(2-dimethylaminoethyl)-[1,3]-dioxolane]
potency order of gene silencing (Factor VII): DLinKC2-DMA>DLinKDMA>DLinDMA>>DLinDAP

AsCas12a: Cas12a (Cpf1) effector used for the screens, here in multiplexed guide arrays
guide pairs scored as synthetic lethal (MAPK1-MAPK3): 98% | cells showing editing at all three loci (CD47, CD63, and B2M): approximately 70% | protospacer adjacent motif (PAM) (essential genes [3]): TTTV

AsCpf1: Acidaminococcus sp. BV3L6 Cpf1
PAM preceding the target sites that can be cleaved [4]: TTTV

Eteplirsen
dystrophin positive fibers compared to baseline (average) (dystrophin): 47%

S542R/K548V/N552R: variant of AsCpf1 engineered with the mutations S542R/K548V/N552R
DNA targeting specificity [5]: retain a high level of DNA targeting specificity | PAMs of target sites that can be cleaved [6]: TATV

S542R/K607R: variant of AsCpf1 engineered with the mutations S542R/K607R
DNA targeting specificity [5]: retain a high level of DNA targeting specificity | PAMs of target sites that can be cleaved [6]: TYCV/CCCC

enCas12a: enCas12a lentiviral expression construct; AsCas12a comprising E174R/S542R/K548R mutations
guides targeting a TTTT site observed to be active (essential genes [1]): 57% | precision recall area under curve (AUC) (essential genes [1]): 0.96 | EEF2 guides targeting TTTN active (essential genes [1]; EEF2 guides of the tiling library): 62% | non-canonical tier 1 guides active, quartile with highest Seq-DeepCpf1 scores (essential genes [1]; TTTC substituted in silico for the actual PAM): 93% | AUC after selecting top half of guides by Seq-DeepCpf1 score (essential genes [1]): 0.97 | guides active, all guides (essential genes [1]): 80% | guides active, quartile with the highest Seq-DeepCpf1 prediction scores (essential genes [1]): 94% | EEF2 guides targeting the other tier 1 PAMs active (essential genes [1]; non-canonical (non-TTTN) PAMs): 68% | double mismatch guides active (essential genes [2]): 16% | perfect match guides scoring as active (essential genes [2]): 91% | single mismatch guides active (essential genes [2]): 54%
